One assay addresses T1, human TLR8 (Homo sapiens, UniProt Q9NR97).
T1 construct: host or cells: HEK293 reporter cells
T1 sequence (Q9NR97 27-1041): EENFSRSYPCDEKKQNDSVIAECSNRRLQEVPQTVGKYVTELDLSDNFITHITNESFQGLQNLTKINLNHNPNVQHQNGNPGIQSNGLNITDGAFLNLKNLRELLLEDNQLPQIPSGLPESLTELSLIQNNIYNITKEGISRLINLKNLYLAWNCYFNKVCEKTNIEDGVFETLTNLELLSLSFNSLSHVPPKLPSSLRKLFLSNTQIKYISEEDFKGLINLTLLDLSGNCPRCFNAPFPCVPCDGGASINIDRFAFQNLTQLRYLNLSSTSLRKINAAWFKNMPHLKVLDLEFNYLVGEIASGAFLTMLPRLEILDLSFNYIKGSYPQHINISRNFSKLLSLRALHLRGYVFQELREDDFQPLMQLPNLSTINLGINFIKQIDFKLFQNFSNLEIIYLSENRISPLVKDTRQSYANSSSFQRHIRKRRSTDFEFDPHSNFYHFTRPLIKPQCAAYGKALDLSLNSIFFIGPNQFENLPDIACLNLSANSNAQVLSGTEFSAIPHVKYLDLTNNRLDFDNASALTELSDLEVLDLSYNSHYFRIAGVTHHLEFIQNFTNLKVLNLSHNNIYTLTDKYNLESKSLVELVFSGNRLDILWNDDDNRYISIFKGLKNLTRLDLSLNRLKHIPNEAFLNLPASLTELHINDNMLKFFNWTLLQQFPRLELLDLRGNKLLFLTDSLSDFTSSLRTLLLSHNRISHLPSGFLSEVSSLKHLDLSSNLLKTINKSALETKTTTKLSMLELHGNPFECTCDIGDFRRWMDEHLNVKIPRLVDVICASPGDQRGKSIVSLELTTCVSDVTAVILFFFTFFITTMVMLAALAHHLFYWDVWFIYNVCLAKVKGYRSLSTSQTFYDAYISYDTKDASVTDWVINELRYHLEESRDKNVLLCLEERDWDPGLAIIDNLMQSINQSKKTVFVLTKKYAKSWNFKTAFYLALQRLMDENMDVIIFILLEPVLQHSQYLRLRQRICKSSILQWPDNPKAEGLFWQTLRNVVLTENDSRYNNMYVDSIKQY
The experiment in a line: HEK293 NFKB reporter assay, human TLR8. Type of assay: cell-based. The conditions noted are these: HEK293 NFKB reporter cells expressing human TLR8; read-out: HEK293 hTLR8 EC50. The procedure: (§1) Each compound was synthesized, purified, and characterized by mass spectrometry and shown to have the mass indicated. Additional experimental procedures are found in the Examples. Activity against HEK293 NFKB reporter cells expressing human TLR7 or human TLR8 was measured according to Example 202.
(§2) HEK293 reporter cells expressing human TLR7 or human TLR8 were purchased from Invivogen and vendor protocols were followed for cellular propagation and experimentation. Briefly, cells were grown to 80-85% confluence at 5% CO2 in DMEM supplemented with 10% FBS, Zeocin, and Blasticidin. Cells were then seeded in 96-well flat plates at 4×10^4 cells/well with substrate containing HEK detection medium and immunostimulatory molecules. Activity was measured using a plate reader at 620-655 nm wavelength.

The next assay has as its target T2, human TLR7 (Homo sapiens, UniProt Q9NYK1).
T2 construct: host or cells: HEK293 reporter cells
T2 sequence (Q9NYK1 27-1049): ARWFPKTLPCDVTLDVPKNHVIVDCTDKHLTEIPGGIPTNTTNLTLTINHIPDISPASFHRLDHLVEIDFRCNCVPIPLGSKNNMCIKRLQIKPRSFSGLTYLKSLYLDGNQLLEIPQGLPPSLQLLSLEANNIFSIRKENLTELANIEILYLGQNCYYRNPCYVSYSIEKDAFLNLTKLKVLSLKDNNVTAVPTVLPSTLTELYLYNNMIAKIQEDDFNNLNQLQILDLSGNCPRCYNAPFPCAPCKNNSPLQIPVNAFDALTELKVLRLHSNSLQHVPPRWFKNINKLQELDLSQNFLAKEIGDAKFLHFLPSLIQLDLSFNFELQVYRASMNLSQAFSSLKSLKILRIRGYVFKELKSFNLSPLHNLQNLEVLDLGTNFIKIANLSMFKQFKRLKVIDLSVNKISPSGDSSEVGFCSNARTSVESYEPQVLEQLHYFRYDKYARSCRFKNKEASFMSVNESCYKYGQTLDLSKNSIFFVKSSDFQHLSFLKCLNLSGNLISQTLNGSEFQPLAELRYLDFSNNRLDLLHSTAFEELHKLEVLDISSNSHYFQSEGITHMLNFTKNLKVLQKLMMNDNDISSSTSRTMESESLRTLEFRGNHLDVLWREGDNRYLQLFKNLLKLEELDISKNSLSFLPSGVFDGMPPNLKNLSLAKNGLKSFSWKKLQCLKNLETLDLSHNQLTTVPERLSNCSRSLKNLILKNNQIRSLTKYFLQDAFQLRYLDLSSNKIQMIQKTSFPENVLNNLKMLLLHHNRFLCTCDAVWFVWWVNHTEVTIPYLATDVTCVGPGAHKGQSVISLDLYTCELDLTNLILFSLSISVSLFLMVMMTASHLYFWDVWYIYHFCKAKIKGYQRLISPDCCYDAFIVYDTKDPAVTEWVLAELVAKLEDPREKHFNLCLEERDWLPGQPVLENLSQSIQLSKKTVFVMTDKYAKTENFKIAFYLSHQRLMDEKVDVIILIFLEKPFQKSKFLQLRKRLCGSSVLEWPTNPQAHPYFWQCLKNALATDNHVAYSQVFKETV
Kind of assay: HEK293 NFKB reporter assay, human TLR7. Type of assay: cell-based. The note with it: HEK293 NFKB reporter cells expressing human TLR7; read-out: HEK293 hTLR7 EC50. As for the experimental part: as §1, §2

Each structure is given as a SMILES string.

Broadly, the EC50 is the concentration at which the effect is half-maximal.

On to `CCCN(Cc1ncco1)C(=O)C1=Cc2sc(CC3CNC3)cc2N=C(N)C1` [TAZ-256], for which the concentration giving a half-maximal response (EC50) on human TLR8 was 3.41 µM. Still for that read-out and setting: the result for `CCCN(OCC)C(=O)C1=Cc2sc(C#CC3(O)CN(C(=O)OC(C)(C)C)C3)cc2N=C(N)C1` [TAZ-188] reads 7.8 µM; that for `CCCN(OCC)C(=O)C1=Cc2sc(CN3CC(CN)C3)cc2N=C(N)C1` [TAZ-211], 4.32 µM; that for `CCCN(OCC)C(=O)C1=Cc2sc(CN3CCC(N)CC3)cc2N=C(N)C1` [TAZ-243], 0.164 µM.

For the compound `CCCN(CCC)C(=O)C1=Cc2sc(COCCCN)cc2N=C(N)C1` [TAZ-73], the EC50 on human TLR7 is greater than 9 µM. In the case of `CCCN(OCC)C(=O)C1=Cc2sc(CN3C[C@H]4CN(C(=O)OC(C)(C)C)C[C@@H]4C3)cc2N=C(N)C1` [TAZ-248], the EC50 on human TLR8 turned out to be 1.11 µM. For the compound `CCCN(C[C@H]1C[C@H](CN)C1)C(=O)C1=Cc2sccc2N=C(N)C1` [TAZ-69], the concentration for a half-maximal effect (EC50) on human TLR8 stood at 4.3 µM.

For `CCCN(CCCNC(=O)CC(C)(C)C)C(=O)C1=Cc2sc(CN3CCNCC3)cc2N=C(N)C1` [TAZ-139], the EC50 on human TLR7 amounted to 4.21 µM.

Turning to `CCCN(OCc1ccc(OC)cc1)C(=O)C1=Cc2sccc2N=C(N)C1` [TAZ-101], on human TLR8, the concentration giving a half-maximal response (EC50) worked out at 0.203 µM.

For the compound `CCCN(CCC)C(=O)C1=Cc2sc(CNC(=O)CN)cc2N=C(N)C1` [TAZ-92], the EC50 at human TLR8 stood at 2.83 µM. As to `CCCN(CC#CCNC(=O)OC(C)(C)C)C(=O)C1=Cc2sccc2N=C(N)C1` [TAZ-16, tert-butyl N-[4-[(5-amino-6H-thieno[3,2-b]azepine-7-carbonyl)-propyl-amino]but-2-ynyl]carbamate], the EC50 at human TLR8 was 6.11 µM. `CCCN(CCCNC(=O)OC1CCC1)C(=O)C1=Cc2sc(CC3CNC3)cc2N=C(N)C1` [TAZ-181]: the EC50 on human TLR7 amounted to 2.03 µM. For the compound `CCCN(OCC)C(=O)C1=Cc2sc(CN3Cc4ccc(NC(=O)CCN)cc4C3)cc2N=C(N)C1` [TAZ-201], the EC50 at human TLR8 is 2.96 µM. The same measure, in the same setting: next, `CCCN(C[C@H]1CC[C@H](CNC(=O)OC(C)(C)C)CC1)C(=O)C1=Cc2sccc2N=C(N)C1` [TAZ-98]: 0.631 µM.

For the compound `CCCN(CCC)C(=O)C1=Cc2sccc2N=C(N)C1` [TAZ-2, 5-amino-N,N-dipropyl-6H-thieno[3,2-b]azepine-7-carboxamide], at human TLR8, the half-maximal effective concentration (EC50) is 2.39 µM.

`CCCN(CC#CCN)C(=O)C1=Cc2sccc2N=C(N)C1` [TAZ-17, 5-amino-N-(4-aminobut-2-ynyl)-N-propyl-6H-thieno[3,2-b]azepine-7-carboxamide]: at human TLR8, the concentration for a half-maximal effect (EC50) was 4.1 µM. Regarding `CCCN(C[C@H]1CC[C@@H](CNC(=O)OC(C)(C)C)CC1)C(=O)C1=Cc2sccc2N=C(N)C1` [TAZ-119], at human TLR7, the EC50 was determined as 2.88 µM. Still for that read-out and setting: the result for `CCCN(CCCNC(=O)C(C)(C)C)C(=O)C1=Cc2sc(CCCCCN)cc2N=C(N)C1` [TAZ-142] reads 0.827 µM. As to `CCCN(OCC)C(=O)C1=Cc2sc(CN3CC4(CCN4Cc4ccccc4)C3)cc2N=C(N)C1` [TAZ-246], on human TLR8, the EC50 came to 1.11 µM. The same measure, in the same setting: the result for `CCCN(Cc1ccc(CNC)cc1)C(=O)C1=Cc2sc(CCCCCN(C)C)cc2N=C(N)C1` [TAZ-65, 5-amino-2-[5-(dimethylamino)pentyl]-N-[[4-(methylaminomethyl)phenyl]methyl]-N-propyl-6H-thieno[3,2-b]azepine-7-carboxamide] reads 0.311 µM. In the case of `CCCN(Cc1ccc(CN2CCNCC2)cc1)C(=O)C1=Cc2sccc2N=C(N)C1` [TAZ-37], on human TLR7, the EC50 is greater than 9 µM. The same measure, in the same setting: the result for `CCCN(C(=O)C1=Cc2sc(CCCCCNC(=O)OC(C)(C)C)cc2N=C(N)C1)C1CC1` [TAZ-123] reads 4.63 µM; that for `CCCN(CCCNC(=O)OC1CCC1)C(=O)C1=Cc2sc(CCC3CNC3)cc2N=C(N)C1` [TAZ-197], 1.81 µM. In the case of `CCCN(OCC)C(=O)C1=Cc2sc(CN3C[C@H]4CNC[C@H]4C3)cc2N=C(N)C1` [TAZ-247], at human TLR8, the concentration giving a half-maximal response (EC50) stood at 0.418 µM. Turning to `CCCN(CC1CC1)C(=O)C1=Cc2sc(CCCCCNC(=O)OC(C)(C)C)cc2N=C(N)C1` [TAZ-125], the EC50 on human TLR7 stood at 2.71 µM.

As for `CCCN(CCCNC(=O)OC1CCC1)C(=O)C1=Cc2sc(CCC3CCN(C(=O)OC(C)(C)C)CC3)cc2N=C(N)C1` [TAZ-167], the EC50 on human TLR7 worked out at 3.13 µM. The same measure, in the same setting: the result for `CCCN(CCCNC(=O)OC1CCC1)C(=O)C1=Cc2sc(CC3CCNCC3)cc2N=C(N)C1` [TAZ-185, cyclobutyl N-[3-[[5-amino-2-(4-piperidylmethyl)-6H-thieno[3,2-b]azepine-7-carbonyl]-propyl-amino]propyl]carbamate] reads 3.7 µM. On the same count and under the same terms, next, `CCCN(CCCNC(=O)OC1CCC1)C(=O)C1=Cc2sc(CN3CCN(c4ccc(C(=O)OC)cc4)CC3)cc2N=C(N)C1` [TAZ-180]: 3.65 µM.

With `CCCN(CCC)C(=O)C1=Cc2sc(CCCCCN)cc2N=C(N)C1` [TAZ-14, 5-amino-2-(5-aminopentyl)-N,N-dipropyl-6H-thieno [3,2-b]azepine-7-carboxamide], at human TLR8, the EC50 is 4.94 µM. With `CCCN(OCC)C(=O)C1=Cc2sc(CC3CCN(C(=O)OC(C)(C)C)CC3)cc2N=C(N)C1` [TAZ-179], the EC50 at human TLR8 is 2.54 µM. Still for that read-out and setting: next, `CCCN(CCC)C(=O)C1=Cc2scc(C)c2N=C(N)C1` [TAZ-168]: 3.87 µM; `CCCN(CCC)C(=O)C1=Cc2sc(COCCN)cc2N=C(N)C1` [TAZ-81]: 7.95 µM.

Consider `CCCN(Cc1ccc(CN(C)C)cc1C(F)(F)F)C(=O)C1=Cc2sc(CCCCCNC(=O)OC(C)(C)C)cc2N=C(N)C1` [TAZ-143], for which the EC50 on human TLR7 is 1.88 µM.

For `CCCN(CCCNC(=O)OC1CCC1)C(=O)C1=Cc2sc(CN3CCNCC3)cc2N=C(N)C1` [TAZ-169], the EC50 on human TLR7 was 3.17 µM. For `CCCN(Cc1ccc(CN)cc1)C(=O)C1=Cc2sccc2N=C(N)C1` [TAZ-30, 5-amino-N-(4-(aminomethyl)benzyl)-N-propyl-6H-thieno[3,2-b]azepine-7-carboxamide], the EC50 at human TLR8 turned out to be 0.641 µM. For `CCCN(OCC)C(=O)C1=Cc2sc(C#CC3CCN(C(=O)OC(C)(C)C)CC3)cc2N=C(N)C1` [TAZ-173], on human TLR7, the EC50 was 7.69 µM.

As for `CCCN(OCC)C(=O)C1=Cc2sc(CN3C[C@@H]4CN(C(=O)OC(C)(C)C)C[C@@H]4C3)cc2N=C(N)C1` [TAZ-242], the EC50 on human TLR8 was found to be 3.78 µM. With `CCCN(OCC)C(=O)C1=Cc2sc(C#CC3CN(C(=O)OC(C)(C)C)C3)cc2N=C(N)C1` [TAZ-187], the EC50 at human TLR8 was 0.964 µM. On to `CCCN(C[C@H]1CC[C@H](CN)CC1)C(=O)C1=Cc2sccc2N=C(N)C1` [TAZ-97], for which the EC50 on human TLR8 was greater than 9 µM. Same read-out and setting: the result for `CCCN(C(=O)C1=Cc2sccc2N=C(N)C1)N(C)CC` [TAZ-100] reads greater than 9 µM.

As to `CCCN(C[C@H]1CC[C@@H](CN)CC1)C(=O)C1=Cc2sccc2N=C(N)C1` [TAZ-118], on human TLR8, the EC50 was determined as 4.44 µM.

The values above are taken from patent US11654199B2 (BOLT BIOTHERAPEUTICS, INC., priority 2019, dated 2023).
